Results reported in paper PMC11189555, “Aryl amino acetamides prevent Plasmodium falciparum ring development via targeting the lipid-transfer protein PfSTART1” (Nature Communications, 2024).
“And” between values parts separate entries of the source, which are not always exact repeats. Equal entries are not always repeated.

Tests used:
Assay type in all cases: cell-based, Plasmodium falciparum
[1] = test system: ring-stage 3D7 parasites; assay: Stage arrest and recovery assay (SYBR Green flow cytometry, Giemsa smears); settings: for growth after washout of compound: 48 h treatment, then washout, 6 days post washout (T = 192 h); for ring morphology after 48 h / schizont development at 36 h / impact on already-developed rings or trophozoites: M-833 2 µM, W-991 60 nM from ring stage; for impact on already-developed rings or trophozoites: one cycle; for Parasitemia derived from flow cytometry: replicates 1 and 2
Description: Parasites were synchronised using a Percoll density gradient (Cytiva) combined with 5% sorbitol lysis. Ring-stage parasites at 0-4 hours post-invasion at 2% parasitemia and haematocrit were then added to 2 µM M-833, 60 nM W-991 or 0.02% DMSO and incubated at 37 °C with compound replenished every 24 h. After 48 h, samples of M-833 and W-991-treated parasites were washed x 3 in complete RPMI to remove the compound and put back into culture for the remainder of the experiment. For the following two cycles of growth, samples were taken every 24 h to monitor recovery. Upon completion of time points, fixed cells were stained with 2.5 x SYBR Green (Invitrogen) in PBS, washed once in PBS, and analysed on the Attune Flow Cytometer (ThermoFisher Scientific). Giemsa-stained blood smears were visualised and imaged using a Nikon Eclipse E600 microscope.

[2] = test system: male gametes from mature stage V gametocytes; assay: Dual gamete formation assay: male gamete formation (exflagellation); settings: for inhibition of male gamete formation: 1 µM, 48 h treatment of mature gametocytes; for Dual Gamete Formation Assay: Male at 1 µM, Mean: mean of 4 plates
Description: (§1) The compounds were tested in the P. falciparum Dual Gamete Formation Assay (PfDGFA)[84], fully described in the Supplementary Information. […]
(§2) Dual gamete formation assays. The compounds were tested in the P. falciparum Dual Gamete Formation Assay (PfDGFA) 13. Briefly, mature stage V gametocytes were exposed to compounds for 48 h at 37°C in 384 well plates in gametocyte culture medium (RPMI 1640 supplemented with 25 mM HEPES, 50 μg/mL hypoxanthine, 4.8 g/L NaHCO3, 2 mM L-glutamine, 5% pooled type AB serum, 0.5% Albumax II (Gibco)) under a 1% O2, 3% CO2, 96% N2 environment. Gametogenesis was then triggered by the addition of 10 μL ookinete medium (gametocyte culture medium supplemented with 100 μM xanthurenic acid and 0.27 µg/mL Cy3-labelled anti-Pfs25 antibody) to each well at room temperature. Plates were then cooled on a metal block at 4°C for four min to ensure even cooling and then stabilised for a further 4 min at 28°C. At 20 min post-induction, male gametogenesis was recorded in each well by automated brightfield microscopy using a x4 objective lens and 1.5x magnifier (x6 effective magnification). Afterward, plates were incubated in the dark at room temperature for 24 h and then female gametogenesis recorded in each well by automated fluorescence microscopy (anti-Pfs25-positive cells). All experiments were performed in quadruplicate with DMSO and cabamiquine (DDD107498)17 as negative and positive controls respectively. All data was evaluated in comparison to the positive and negative controls to calculate percentage inhibition of male and female gametocytes, and dose response analysis and IC50 calculation performed using GraphPad Prism. […]

[3] = test system: female gametes from mature stage V gametocytes; assay: Dual gamete formation assay: female gamete formation (Pfs25 expression); settings: for inhibition of female gamete formation: 1 µM, 48 h treatment of mature gametocytes; for Dual Gamete Formation Assay: Female at 1 µM, Mean: mean of 4 plates
Description: as §1, §2

SMILES	growth after washout of compound [1]	ring morphology after 48 h [1]	schizont development at 36 h [1]	impact on already-developed rings or trophozoites [1]	Parasitemia derived from flow cytometry ([1]; timepoint 0, no washout)	Parasitemia derived from flow cytometry ([1]; timepoint 0, washout)	Parasitemia derived from flow cytometry ([1]; timepoint 48, no washout)	Parasitemia derived from flow cytometry ([1]; timepoint 48, washout)	Parasitemia derived from flow cytometry ([1]; timepoint 96, no washout)	Parasitemia derived from flow cytometry ([1]; timepoint 96, washout)	Parasitemia derived from flow cytometry ([1]; timepoint 144, no washout)	Parasitemia derived from flow cytometry ([1]; timepoint 144, washout)	Parasitemia derived from flow cytometry ([1]; timepoint 192, no washout)	Parasitemia derived from flow cytometry ([1]; timepoint 192, washout)	Parasitemia derived from flow cytometry ([1]; timepoint 240, no washout)	Parasitemia derived from flow cytometry ([1]; timepoint 240, washout)	inhibition of male gamete formation [2]	Dual Gamete Formation Assay: Male at 1 µM, Mean [2]	inhibition of female gamete formation [3]	Dual Gamete Formation Assay: Female at 1 µM, Mean [3]	other results
Cc1cc(Cl)c(S(=O)(=O)N2CCCC2)cc1OCC(=O)NC1CCCCC1 [M-833]	able to resume normal growth	presence of dysmorphic rings	slight developmental delay of schizonts	did not indicate any impact	2.571 and 1.962	1.962 and 2.571	11.6017 and 7.415	7.415 and 11.6017	6.175 and 3.315	2.881 and 5.202	3.175 and 1.778	2.202 and 4.604	2.332 and 1.369	3.268 and 8.096	2.528 and 1.343	6.874 and 13.4537	no inhibition	0.872	no inhibition	-1.423	–
CC(C)(Nc1ccc(Cl)c(S(=O)(=O)N2CCOCC2)c1)C(=O)Nc1ccc(F)c(Cl)c1 [W-991]	able to resume normal growth	presence of dysmorphic rings	slight developmental delay of schizonts	did not indicate any impact	2.571 and 1.962	2.571 and 1.962	11.0007 and 8.084	11.0007 and 8.084	5.782 and 3.338	5.455 and 2.599	3.388 and 1.894	3.848 and 1.766	2.379 and 1.388	4.263 and 2.036	2.587 and 1.356	6.983 and 2.934	no inhibition	-1.328	no inhibition	-2.932	reduction in parasitemia vs DMSO (Giemsa-stained smears) ([1]; 60 h time point): 1.3 fold
